Columns and labels:
Format in all cases: cell-based
CFTR ΔF508 mutant [1] = target: T1, CFTR ΔF508 mutant (Homo sapiens, UniProt P13569, DEL508-508); test: YFP-halide influx assay for the CFTR-ΔF508 mutation, PBS buffer (96 well); conditions: CFBE41o- cells, forskolin 10.67 μM
T1 construct: expressed in transfected cells; host or cells: CFBE41o- (adenoviral transduction)
Excerpt: The YFP halide influx assay measures the functionality of the cystic fibrosis Transmembrane Conductance regulator (CFTR) channels in the cystic fibrosis bronchial epithelium cell line CFBE41o-. The assay is used to evaluate the capacity of compounds to increase the open probability of existing CFTR channels in the membrane. It makes use of the observation that the yellow fluorescent protein (YFP) variant YFP H148Q, I152L has its fluorescence substantially quenched by halide ions like Cl^− and I^−. (Galietta, Haggie, & Verkman, 2001) (Nagai, et al., 2002)
For this purpose, CFBE41o-cells are seeded in 96 well plates (6000 CFBE cells/well). One day after seeding, the CFBE cells are transduced with adenoviral vectors that direct the expression of the CFTR ΔF508 mutant and of the YFP reporter. Cells are incubated at 27° C., 5% CO2 for 24 hours so as to allow for the proper folding and migration to the membrane of the CFTR channel or treated with a CFTR modulator during 24 hours at 37° C.
The I^− induced quenching of fluorescence is recorded immediately after injection of I^− for 7 seconds. The capacity of a compound to increase the channel opening is directly correlated with the decrease in fluorescence, and is expressed as (1-(fluorescence after 7 seconds (F)/fluorescence before injection (F0))) and an EC50 can be derived from a (1-F/F0) vs compound concentration plot.

CFTR G551D mutant = target: T2, CFTR G551D mutant (Homo sapiens, UniProt P13569, G551D); test: YFP-halide influx assay for the CFTR-G551D mutation; conditions: HEK293 cells, forskolin 10.67 μM
T2 construct: expressed in transfected cells; host or cells: HEK293 (reverse transfection with plasmid)
T2 sequence (P13569 whole entry G551D): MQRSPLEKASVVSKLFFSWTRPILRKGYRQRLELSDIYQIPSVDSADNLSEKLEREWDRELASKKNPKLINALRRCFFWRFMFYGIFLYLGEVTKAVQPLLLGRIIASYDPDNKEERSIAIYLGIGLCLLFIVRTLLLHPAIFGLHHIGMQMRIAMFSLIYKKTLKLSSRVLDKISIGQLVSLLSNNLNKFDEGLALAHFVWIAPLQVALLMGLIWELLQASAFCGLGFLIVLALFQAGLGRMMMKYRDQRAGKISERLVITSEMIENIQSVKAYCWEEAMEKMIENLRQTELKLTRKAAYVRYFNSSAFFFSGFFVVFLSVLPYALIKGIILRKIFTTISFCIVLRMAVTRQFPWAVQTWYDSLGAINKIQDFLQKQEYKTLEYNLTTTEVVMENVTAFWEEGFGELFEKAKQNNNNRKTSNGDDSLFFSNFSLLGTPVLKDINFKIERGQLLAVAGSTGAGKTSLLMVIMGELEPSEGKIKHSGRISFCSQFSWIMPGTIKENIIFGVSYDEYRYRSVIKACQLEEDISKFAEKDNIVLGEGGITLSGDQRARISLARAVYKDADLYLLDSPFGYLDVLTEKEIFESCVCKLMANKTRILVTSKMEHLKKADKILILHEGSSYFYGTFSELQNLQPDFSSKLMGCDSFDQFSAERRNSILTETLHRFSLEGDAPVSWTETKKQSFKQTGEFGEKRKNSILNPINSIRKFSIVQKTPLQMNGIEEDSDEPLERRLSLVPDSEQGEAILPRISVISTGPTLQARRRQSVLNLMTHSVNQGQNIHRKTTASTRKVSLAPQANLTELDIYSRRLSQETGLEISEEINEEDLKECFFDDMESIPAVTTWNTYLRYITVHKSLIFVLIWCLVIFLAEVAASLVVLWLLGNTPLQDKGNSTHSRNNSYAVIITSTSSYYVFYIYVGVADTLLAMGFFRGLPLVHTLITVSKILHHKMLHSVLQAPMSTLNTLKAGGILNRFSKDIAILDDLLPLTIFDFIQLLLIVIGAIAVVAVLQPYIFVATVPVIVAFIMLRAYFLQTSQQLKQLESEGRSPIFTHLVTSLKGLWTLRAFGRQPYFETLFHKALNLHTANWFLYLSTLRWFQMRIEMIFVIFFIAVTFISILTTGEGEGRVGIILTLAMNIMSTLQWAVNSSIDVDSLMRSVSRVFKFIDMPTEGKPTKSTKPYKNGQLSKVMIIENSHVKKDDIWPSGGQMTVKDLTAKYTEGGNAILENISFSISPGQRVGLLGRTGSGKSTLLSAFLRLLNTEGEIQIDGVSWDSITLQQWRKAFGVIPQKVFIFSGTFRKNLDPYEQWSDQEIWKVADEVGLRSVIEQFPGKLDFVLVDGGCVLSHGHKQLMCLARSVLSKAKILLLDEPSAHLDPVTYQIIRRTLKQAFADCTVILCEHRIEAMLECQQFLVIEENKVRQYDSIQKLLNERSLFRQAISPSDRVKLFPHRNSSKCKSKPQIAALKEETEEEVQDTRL
Procedure, shortened: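 Channel opening potentiation measured as 1−F/F0, where F is YFP fluorescence 7 s after iodide injection and F0 before; EC50 taken from concentration plot. Cells: HEK293 transiently expressing CFTR G551D plus halide-sensitive YFP (H148Q, I152L, F47L), 24 h at 37 °C, 5% CO2.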

CFTR ΔF508 mutant [2] = target: T1, CFTR ΔF508 mutant; test: YFP-halide influx assay for the CFTR-ΔF508 mutation (384 well, FDSS/μCell); conditions: CFBE41o- cells, CFTR-ΔF508, 1×D-PBS, fluorescence after 36 seconds
Procedure, shortened: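 Potentiator read-out as 1−F/F0, F taken 36 s after iodide addition, EC50 fitted against compound concentration. Cells: CFBE41o- expressing ΔF508 CFTR plus halide-sensitive YFP via adenovirus, rescued by 27 °C for 24 h or 24 h modulator at 37 °C.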

T1 sequence (P13569 with tags, fused parts or gaps DEL508-508): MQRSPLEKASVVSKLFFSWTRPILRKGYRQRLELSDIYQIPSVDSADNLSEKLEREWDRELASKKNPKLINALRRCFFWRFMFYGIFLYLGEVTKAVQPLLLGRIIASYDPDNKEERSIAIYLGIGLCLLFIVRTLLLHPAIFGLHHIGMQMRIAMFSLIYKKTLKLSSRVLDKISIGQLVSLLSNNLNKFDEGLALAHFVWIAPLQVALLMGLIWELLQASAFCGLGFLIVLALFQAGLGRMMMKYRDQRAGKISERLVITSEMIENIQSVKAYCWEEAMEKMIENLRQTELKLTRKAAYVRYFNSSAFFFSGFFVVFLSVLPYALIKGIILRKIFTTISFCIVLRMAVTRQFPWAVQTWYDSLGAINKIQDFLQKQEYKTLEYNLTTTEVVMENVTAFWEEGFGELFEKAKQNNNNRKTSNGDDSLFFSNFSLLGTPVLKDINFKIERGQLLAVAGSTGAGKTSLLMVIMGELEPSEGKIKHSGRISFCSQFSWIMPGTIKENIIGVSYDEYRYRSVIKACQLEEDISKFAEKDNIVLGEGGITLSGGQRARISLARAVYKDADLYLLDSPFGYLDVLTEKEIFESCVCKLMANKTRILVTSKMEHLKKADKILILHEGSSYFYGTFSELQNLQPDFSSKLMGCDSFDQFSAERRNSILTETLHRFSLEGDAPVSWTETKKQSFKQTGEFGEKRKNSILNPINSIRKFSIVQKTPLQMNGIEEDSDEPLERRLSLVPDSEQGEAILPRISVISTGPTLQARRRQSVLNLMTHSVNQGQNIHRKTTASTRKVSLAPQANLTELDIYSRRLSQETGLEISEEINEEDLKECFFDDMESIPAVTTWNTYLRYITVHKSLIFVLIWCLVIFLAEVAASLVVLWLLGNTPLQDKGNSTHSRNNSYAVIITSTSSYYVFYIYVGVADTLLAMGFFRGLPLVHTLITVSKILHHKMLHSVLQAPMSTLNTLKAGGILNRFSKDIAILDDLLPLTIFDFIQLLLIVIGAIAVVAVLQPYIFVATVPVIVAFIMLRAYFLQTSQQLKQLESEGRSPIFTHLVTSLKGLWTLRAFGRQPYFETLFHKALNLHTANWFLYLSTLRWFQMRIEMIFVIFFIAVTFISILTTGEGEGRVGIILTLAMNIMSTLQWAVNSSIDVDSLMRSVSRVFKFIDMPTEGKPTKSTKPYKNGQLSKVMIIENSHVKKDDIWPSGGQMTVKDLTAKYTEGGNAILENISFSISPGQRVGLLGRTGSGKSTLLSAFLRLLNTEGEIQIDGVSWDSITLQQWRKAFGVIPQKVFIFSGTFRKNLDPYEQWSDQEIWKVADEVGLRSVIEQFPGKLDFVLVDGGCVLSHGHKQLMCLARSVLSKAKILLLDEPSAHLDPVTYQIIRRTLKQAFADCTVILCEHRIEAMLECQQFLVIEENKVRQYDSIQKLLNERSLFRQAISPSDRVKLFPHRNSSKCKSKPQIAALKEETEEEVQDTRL

Row | SMILES | EC50 (CFTR ΔF508 mutant [1]) | EC50 (CFTR G551D mutant) | EC50 (CFTR ΔF508 mutant [2]) | EC50 (CFTR G551D mutant; class symbol)
1 | CN(Cc1ccc(F)cc1)S(=O)(=O)c1cc(C(N)=O)c(NC(=O)C2(O)CC2)s1 [Compound 231, 5-(N-(4-fluorobenzyl)-N-methylsulfamoyl)-2-(1-hydroxycyclopropanecarboxamido) thiophene-3-carboxamide] | 26 nM | 676 nM | 31.8 nM | –
2 | CN(c1ccc(F)cc1)S(=O)(=O)c1cc(C(N)=O)c(NC(=O)C2(O)CC2)s1 [Compound 236, 5-(N-(4-fluorophenyl)-N-methylsulfamoyl)-2-(1-hydroxycyclopropanecarboxamido) thiophene-3-carboxamide] | 46.4 nM | 6660 nM | 25.2 nM | –
3 | NC(=O)c1cc(S(=O)(=O)N2CCOc3ccccc32)sc1NC(=O)C1(O)CC1 [Compound 242, 5-(2H-benzo[b][1,4]oxazin-4(3H)-ylsulfonyl)-2-(1-hydroxycyclopropanecarboxamido) thiophene-3-carboxamide] | 17.3 nM | 163 nM | 9.6 nM | –
4 | COc1ccc(S(=O)(=O)c2cc(C(N)=O)c(NC(=O)C3(O)CC3)s2)cc1 [Compound 245, 2-(1-hydroxycyclopropanecarboxamido)-5-(4-methoxyphenylsulfonyl) thiophene-3-carboxamide] | 60.3 nM | 621 nM | 113 nM | –
5 | CC(O)C(=O)Nc1sc(S(=O)(=O)c2ccc(F)cc2)cc1C(N)=O (centres unmarked) [Compound 248, 5-(4-fluorophenylsulfonyl)-2-(2-hydroxypropanamido) thiophene-3-carboxamide] | 85.8 nM | 1390 nM | 70.1 nM | –
6 | Cc1cccc(C)c1S(=O)(=O)c1cc(C(N)=O)c(NC(=O)C2(O)CC2)s1 [Compound 251, 5-(2,6-dimethylphenylsulfonyl)-2-(1-hydroxycyclopropanecarboxamido) thiophene-3-carboxamide] | 20.8 nM | 1250 nM | 47.2 nM | –
7 | NC(=O)c1cc(S(=O)(=O)c2ccc(F)cc2F)sc1NC(=O)C1(O)CC1 [Compound 256, 5-(2,4-difluorophenylsulfonyl)-2-(1-hydroxycyclopropanecarboxamido) thiophene-3-carboxamide] | 26.2 nM | 1770 nM | 23.1 nM | –
8 | NC(=O)c1cc(S(=O)(=O)c2ccccc2C(F)(F)F)sc1NC(=O)C1(O)CC1 [Compound 257, 2-(1-hydroxycyclopropanecarboxamido)-5-(2-(trifluoromethyl)phenylsulfonyl) thiophene-3-carboxamide] | 16.3 nM | 333 nM | 26.1 nM | –
9 | Cn1ccnc1S(=O)(=O)c1cc(C(N)=O)c(NC(=O)C(C)(C)O)s1 [Compound 285, 2-(2-hydroxy-2-methylpropanamido)-5-(1-methyl-1H-imidazol-2-ylsulfonyl) thiophene-3-carboxamide] | > 1000 nM | – | – | > 1000 nM
10 | NC(=O)c1cc(S(=O)(=O)c2ccc(F)cc2)sc1NC(=O)C(O)CO (centres unmarked) [Compound 288, 2-(2,3-dihydroxypropanamido)-5-(4-fluorophenylsulfonyl) thiophene-3-carboxamide] | 2360 nM | – | – | > 1000 nM
11 | CC(=O)OC(C)(C)C(=O)Nc1sc(S(=O)(=O)c2ccccc2C(C)C)cc1C(N)=O [Compound 294, 1-(3-carbamoyl-5-(2-isopropylphenylsulfonyl)thiophen-2-ylamino)-2-methyl-1-oxopropan-2-yl acetate] | 228 nM | 1330 nM | – | –
12 | Cc1ccc(S(=O)(=O)c2cc(C(N)=O)c(NC(=O)C(C)(C)O)s2)cn1 [Compound 297, 2-(2-Hydroxy-2-methyl-propionylamino)-5-(6-methyl-pyridine-3-sulfonyl)-thiophene-3-carboxylic acid amide] | 367 nM | 3330 nM | – | –
13 | COc1ccccc1S(=O)(=O)c1cc(C(N)=O)c(NC(=O)C(C)(C)O)s1 [Compound 301, 2-(2-hydroxy-2-methylpropanamido)-5-(2-methoxyphenylsulfonyl) thiophene-3-carboxamide] | 174 nM | – | – | > 1000 nM

Continued by falling EC50 (CFTR ΔF508 mutant [1]), values first:

Row | EC50 (CFTR ΔF508 mutant [1]) | EC50 (CFTR G551D mutant) | EC50 (CFTR ΔF508 mutant [2]) | EC50 (CFTR G551D mutant; class symbol) | SMILES
14 | 915 nM | 3330 nM | – | – | Cc1cc(S(=O)(=O)c2cc(C(N)=O)c(NC(=O)C(C)(C)O)s2)ccn1 [Compound 299, 2-(2-Hydroxy-2-methyl-propionylamino)-5-(2-methyl-pyridine-4-sulfonyl)-thiophene-3-carboxylic acid amide]
15 | 727 nM | – | – | > 1000 nM | CC(C)(O)C(=O)Nc1sc(S(=O)(=O)c2cc(F)ccc2O)cc1C(N)=O [Compound 296, 5-(5-fluoro-2-hydroxyphenylsulfonyl)-2-(2-hydroxy-2-methylpropanamido) thiophene-3-carboxamide]
16 | 254 nM | – | – | > 1000 nM | COCCN(C1CC1)S(=O)(=O)c1cc(C(N)=O)c(NC(=O)C(C)(C)O)s1 [Compound 306, 5-(N-cyclopropyl-N-(2-methoxyethyl)sulfamoyl)-2-(2-hydroxy-2-methylpropanamido) thiophene-3-carboxamide]
17 | 234 nM | 1030 nM | – | – | CC(C)(O)C(=O)Nc1sc(S(=O)(=O)N2CCC(F)(F)CC2)cc1C(N)=O [Compound 308, 5-(4,4-difluoropiperidin-1-ylsulfonyl)-2-(2-hydroxy-2-methylpropanamido) thiophene-3-carboxamide]
18 | 115 nM | 2860 nM | – | – | CC1(C)CN(S(=O)(=O)c2cc(C(N)=O)c(NC(=O)C(C)(C)O)s2)C1 [Compound 309, 5-(3,3-Dimethyl-azetidine-1-sulfonyl)-2-(2-hydroxy-2-methyl-propionylamino)-thiophene-3-carboxylic acid amide]
19 | 78.5 nM | 627 nM | 75.1 nM | – | COc1ccc(OC)c(S(=O)(=O)c2cc(C(N)=O)c(NC(=O)C3(O)CC3)s2)c1 [Compound 246, 5-(2,5-dimethoxyphenylsulfonyl)-2-(1-hydroxycyclopropanecarboxamido) thiophene-3-carboxamide]
20 | 73 nM | 3330 nM | 50.8 nM | – | CC(C)(CO)C(=O)Nc1sc(S(=O)(=O)c2ccc(F)cc2)cc1C(N)=O [Compound 253, 5-(4-fluorophenylsulfonyl)-2-(3-hydroxy-2,2-dimethylpropanamido) thiophene-3-carboxamide]
21 | 41.5 nM | 472 nM | 39.3 nM | – | NC(=O)c1cc(S(=O)(=O)c2cccc(F)c2)sc1NC(=O)C1(O)CC1 [Compound 227, 5-(3-fluorophenylsulfonyl)-2-(1-hydroxycyclopropanecarboxamido) thiophene-3-carboxamide]
22 | 36.2 nM | 295 nM | 26.5 nM | – | NC(=O)c1cc(S(=O)(=O)c2ccc(Cl)cc2)sc1NC(=O)C1(O)CC1 [Compound 225, 5-(4-chlorophenylsulfonyl)-2-(1-hydroxycyclopropanecarboxamido) thiophene-3-carboxamide]
23 | 20.5 nM | 93 nM | 29 nM | – | CC(C)c1ccccc1S(=O)(=O)c1cc(C(N)=O)c(NC(=O)C2(O)CC2)s1 [Compound 228, 2-(1-hydroxycyclopropanecarboxamido)-5-(2-isopropylphenylsulfonyl) thiophene-3-carboxamide]
24 | 10.8 nM | 113 nM | 18.5 nM | – | NC(=O)c1cc(S(=O)(=O)c2c(Cl)cccc2Cl)sc1NC(=O)C1(O)CC1 [Compound 247, 5-(2,6-dichlorophenylsulfonyl)-2-(1-hydroxycyclopropanecarboxamido) thiophene-3-carboxamide]

— patent US9382254B2, “Compounds and pharmaceutical compositions thereof for the treatment of cystic fibrosis” (Galapagos NV, priority 2013, dated 2016)
